Assay results taken from ChEMBL document CHEMBL5331060, “Bisindole natural products: A vital source for the development of new anticancer drugs” (Eur J Med Chem, 2022).
Values after ≈ are worked out from the molar mass of the structure shown. Values belong to the molecule of their own block, whether it stands above or below them.

Key:
Format in all cases: functional, cell-based
[1] = tested on: HL-60; assay: Antiproliferative activity against human HL-60 cells assessed as inhibition of cell growth incubated for 48 hrs by WST-1 assay; conditions: HL-60, 48 h
[2] = tested on: K562; assay: Antiproliferative activity against human K562 cells assessed as inhibition of cell growth incubated for 48 hrs by WST-1 assay; conditions: K562, 48 h
[3] = tested on: MCF7; assay: Antiproliferative activity against human MCF7 cells assessed as inhibition of cell growth incubated for 48 hrs by MTT assay; conditions: MCF7, 48 h
[4] = tested on: SW480; assay: Antiproliferative activity against human SW480 cells assessed as inhibition of cell growth incubated for 48 hrs by MTT assay; conditions: SW480, 48 h
[5] = tested on: A549; assay: Antiproliferative activity against human A549 cells assessed as inhibition of cell growth incubated for 48 hrs by MTT assay; conditions: A549, 48 h
[6] = tested on: HL-60; assay: Antiproliferative activity against human HL-60 cells assessed as inhibition of cell growth incubated for 48 hrs by MTT assay; conditions: HL-60, 48 h
[7] = tested on: SMMC-7721; assay: Antiproliferative activity against human SMMC-7721 cells assessed as inhibition of cell growth incubated for 48 hrs by MTT assay; conditions: SMMC-7721, 48 h
[8] = Antiproliferative activity against mouse […] cells assessed as inhibition of cell growth
[9] = tested on: K562; assay: Antiproliferative activity against human K562 cells assessed as inhibition of cell growth by MTT assay
[10] = tested on: A549; assay: Antiproliferative activity against human A549 cells assessed as inhibition of cell growth by MTT assay
[11] = tested on: MCF7; assay: Antiproliferative activity against human MCF7 cells assessed as inhibition of cell growth incubated for 24 hrs by MTT assay; conditions: MCF7, 24 h
[12] = tested on: AGS; assay: Antiproliferative activity against human AGS cells assessed as inhibition of cell growth incubated for 24 hrs by MTT assay
[13] = tested on: L1210; assay: Antiproliferative activity against mouse L1210 cells assessed as inhibition of cell growth incubated for 24 hrs by MTT assay; conditions: L1210, 24 h
[14] = tested on: SMMC-7721; assay: Antiproliferative activity against human SMMC-7721 cells assessed as inhibition of cell growth incubated for 48 hrs by MTS assay; conditions: SMMC-7721, 48 h
[15] = tested on: A549; assay: Antiproliferative activity against human A549 cells assessed as inhibition of cell growth incubated for 48 hrs by MTS assay; conditions: A549, 48 h
[16] = tested on: HL-60; assay: Antiproliferative activity against human HL-60 cells assessed as inhibition of cell growth incubated for 48 hrs by MTS assay; conditions: HL-60, 48 h
[17] = tested on: MCF7; assay: Antiproliferative activity against human MCF7 cells assessed as inhibition of cell growth incubated for 48 hrs by MTS assay; conditions: MCF7, 48 h
[18] = tested on: SW480; assay: Antiproliferative activity against human SW480 cells assessed as inhibition of cell growth incubated for 48 hrs by MTS assay; conditions: SW480, 48 h

IC50 [1]: > 100 µM | IC50 [2]: > 100 µM
Compound: CCC(=O)[C@H](O)[C@@H]1CN(C=O)CCc2c([nH]c3ccccc23)[C@@](C(=O)OC)(c2cc3c(cc2OC)N(C)[C@H]2[C@@](O)(C(=O)OC)[C@H](OC(C)=O)[C@]4(CC)C=CCN5CC[C@]32[C@@H]54)C1

IC50 [1]: 56.2 µM | IC50 [2]: 56.2 µM
Compound: CCC(=O)C[C@@H]1CN(C=O)CCc2c([nH]c3ccccc23)[C@@](C(=O)OC)(c2cc3c(cc2OC)N(C)[C@@H]2[C@]34CCN3CC=C[C@@](CC)(C[C@]2(O)C(=O)OC)[C@H]34)C1

IC50 [3]: 3240 nM | IC50 [4]: 3240 nM | IC50 [5]: 3240 nM | IC50 [6]: 3240 nM | IC50 [7]: 3240 nM
Compound: CC[C@]12C=CCN3CCc4c(n(c5ccccc45)[C@@H](c4cc5c(cc4OC)NC4=C(C(=O)OC)C[C@]6([C@@H](C)OC(C)=O)CCCN7CC[C@@]45[C@@H]76)C1)[C@@H]32

IC50 [1]: 56.2 µM | IC50 [2]: 56.2 µM
Compound: CC[C@]12CN3CC[C@@]45C(=Nc6ccccc64)[C@@](C(=O)OC)(c4cc6c(cc4OC)N(C)[C@H]4[C@@](O)(C(=O)OC)[C@H](OC(C)=O)[C@]7(CC)C=CCN8CC[C@]64[C@@H]87)C[C@H]([C@H]1O2)[C@H]35

Compound: Brc1ccc2c(-c3c[nH]c(-c4c[nH]c5cc(Br)ccc45)n3)c[nH]c2c1 [NORTOPSENTIN A]
IC50 [8]: 7.6 µg/mL (≈ 16.7 µM)

IC50 [9]: 24.2 µM | IC50 [10]: 24.2 µM
Compound: CO[C@@]1(C(=O)c2c[nH]c3cc(O)ccc23)N=C(c2c[nH]c3cc(Br)ccc23)C(=O)N1

IC50 [9]: 24.2 µM | IC50 [10]: 24.2 µM
Compound: CO[C@@]1(C(=O)c2c[nH]c3cc(O)ccc23)N=C(c2c[nH]c3ccccc23)C(=O)N1

IC50 [11]: 78.5 µM
Compound: O=C1C[C@H]2c3ccc(O)c(O)c3[C@]3(Nc4ccccc4C3=O)[C@]23C(=O)c2ccccc2N13

IC50 [9]: > 90 µM | IC50 [10]: > 90 µM
Compound: O=C(NCC(=O)c1c[nH]c2ccccc12)NC(=O)c1c[nH]c2cc(O)ccc12

IC50 [11]: 32.2 µM
Compound: O=C1C[C@@H]2c3cc(O)c(O)cc3[C@@]3(Nc4ccccc4C3=O)[C@@]23C(=O)c2ccccc2N13

IC50 [1]: 56.2 µM | IC50 [2]: 56.2 µM
Compound: CC/C1=C/N(C=O)CCc2c([nH]c3ccccc23)[C@@](C(=O)OC)(c2cc3c(cc2OC)N(C)[C@H]2[C@@](O)(C(=O)OC)[C@H](OC(C)=O)[C@]4(CC)C=CCN5CC[C@]32[C@@H]54)CC(=O)C1

IC50 [12]: 1.1 µg/mL (≈ 2.25 µM) | IC50 [13]: 1.1 µg/mL (≈ 2.25 µM)
Compound: O=C1N[C@H](c2c[nH]c3cc(Br)ccc23)CN[C@H]1c1c[nH]c2cc(Br)ccc12

IC50 [9]: 2.2 µM
Compound: CC(=O)C[C@@H]1c2c([nH]c3ccccc23)[C@H](c2c[nH]c3ccccc23)[C@H]1C(C)=O

IC50 [14]: 13.1 µM | IC50 [15]: 13.1 µM | IC50 [16]: 13.1 µM | IC50 [17]: 13.1 µM | IC50 [18]: 13.1 µM
Compound: CC[C@]12C=C[C@H]([C@@]34CN5CC[C@]67C(=C(C(=O)OC)C[C@](CC)([C@@H]3O4)[C@H]56)Nc3cc(OC)ccc37)N3CC[C@]4(C(=C(C(=O)OC)C1)Nc1cc(OC)ccc14)[C@@H]32

IC50 [3]: 2900 nM | IC50 [4]: 2900 nM | IC50 [5]: 2900 nM | IC50 [6]: 2900 nM | IC50 [7]: 2900 nM
Compound: C/C=C1/CN2COC[C@]3(C(=O)OC)[C@@H]1C[C@@H](c1cccc4c5c([nH]c14)[C@]1(C(=O)OC)C[C@@H]4C[C@H](CC)[C@@H]1N(CC5)[C@@H]4CC(C)=O)c1[nH]c4ccccc4c1C[C@]23C

IC50 [9]: > 90 µM | IC50 [10]: > 90 µM
Compound: O=C(NCC(=O)c1c[nH]c2cc(Br)ccc12)NC(=O)c1c[nH]c2cc(O)ccc12

IC50 [3]: 2900 nM | IC50 [4]: 2900 nM | IC50 [5]: 2900 nM | IC50 [6]: 2900 nM | IC50 [7]: 2900 nM
Compound: C/C=C1/CN(C)[C@@]2(C)Cc3c([nH]c4ccccc34)[C@H](c3c(OC)ccc4c3NC3[C@@]4(O)CCN4C[C@H]5C[C@H](CC)[C@H]4[C@@]3(C(=O)OC)C5)C[C@H]1[C@]2(COC(C)=O)C(=O)OC (stereo partly specified)

IC50 [12]: 1.1 µg/mL (≈ 2.7 µM) | IC50 [13]: 1.1 µg/mL (≈ 2.7 µM)
Compound: O=C1N[C@H](c2c[nH]c3ccccc23)CN=C1c1c[nH]c2cc(Br)ccc12

IC50 [9]: 24.2 µM | IC50 [10]: 24.2 µM
Compound: CO[C@@]1(C(=O)c2c[nH]c3ccccc23)N=C(c2c[nH]c3ccccc23)C(=O)N1
